System: 855422-203-R-J1-PDC complex spheroid viability
Test: Anticancer human tumor 855422-203-R-J1-PDC patient-derived bladder carcinoma cell line growth inhibition
Details: for IC50: curve of first compound; for viability, T/C: stronger effect = lower value
From the text: Multicellular complex tumor spheroid response to LSD1 Inhibitor Iadademstat in combination with a variety of drugs and investigational agents in selected tumor cell lines
The current study was undertaken to assess response to LSD1 inhibitors in combination with standard-of-care drugs and investigational agents in solid tumor complex spheroid models as well as in the K-562 leukemia. Complex spheroids include a stromal component modeled by human endothelial cells (HUVEC) and fibroblasts modeled by human mesenchymal stem cells (MSCs). The concentration ranges selected for each drug and investigational agent were based upon clinically achievable concentrations if the clinical Cmax of the agent was known.
Compounds. The drugs and investigational agents used in this study are listed on Table 1. All of the agents used, including staurosporine (NSC755774) and gemcitabine (NSC613327), were obtained from the Developmental Therapeutics Program, NCI. FDA-approved anticancer drugs are available from the NCI at http://dtp.nci.nih.gov/branches/dscb/oncology_drugset_explanation.html. Drugs and investigational agents were >95% pure by proton nuclear magnetic resonance (NMR) and liquid chromatography/mass spectrometry (LC/MS). Stock solutions were prepared at 400x in DMSO, stored at -70 degrees C, and diluted in fresh medium prior to their use. The final concentration of DMSO in cell culture wells never exceeded 0.25% (v/v). The FDA-approved anticancer drug set is available from the Developmental Therapeutics Program at https://dtp.cancer.gov/organization/dscb/obtaining/available_plates.htm. All drugs and investigational agents were tested over a range starting from a high concentration at or near the clinical Cmax and decreasing in half-log increments. If the clinical Cmax for an agent had not been determined, the highest concentration tested was 10 microM.
Cell Lines. The patient-derived cancer cell (PDC) lines: 292921-168-R-J2-PDC, K24384-001-R-PDC, and 521955-158-R2-J5-PDC pancreatic carcinomas, 556581-035-R-J1 ovarian carcinoma, 324938-238-R-J1-PDC, 855422-203-R-J1-PDC and 883617-216-R-J1-PDC urothelial bladder carcinomas, 743489-274-T-PDC renal cell carcinoma, 138582-R-J1 Merkel cell tumor, K60290-347-R-J1 and K57222-313-R-J1-PDC glioblastomas, 653999-131-R-J2-PDC, LG0703-F948-PDC, and 349418-098-R-PDC non-small cell lung carcinomas, 885512-296-R-J2-PDC, 171881-019-R-J1-PDC breast carcinomas and 186277-243-T-J2-PDC and 233499-124-R-J2-PDC colon carcinomas were obtained from the NCI Patient-Derived Models Repository (PDMR, https://pdmr.cancer.gov). The established cell lines NCI/ADR-RES (RRID:CVCL_14520 and OVCAR-5 (RRID:CVCL_1628) ovarian carcinomas, 786-O (RRID:CVCL_1051) and A498 (RRID:CVCL_A498) renal cell carcinoma, NCI-H211 (ATCC, cat. CRL-5824; RRID:CVCL_1529), NCI-H196 (ATCC, cat. CRL-5823, RRID:CVCL_1509), SW 1271 (ATCC, cat. CRL-2177, RRID:CVCL_1716) and NCI-H1876 (ATCC, cat. CRL-5902, RRID:CVCL_1503) small cell lung carcinomas, MDA-MB-231 (RRID:CVCL_0062) and MDA-MB-468 (RRID:CVCL_0419)breast carcinomas (10-12). Pooled donor human umbilical vein endothelial cells (HUVEC, Lonza, cat. CC-2519) and human mesenchymal stem cells (hMSC, Lonza, cat. PT-2501) were purchased from Lonza (Walkersville, MD).
Cell Culture. All cells were maintained in an incubator at 37 degrees C and 5% CO2 with 95% humidity. The PDC lines were cultured according to standard operating procedures established by the NCI PDMR (https://pdmr.cancer.gov). Briefly all PDCs were thawed and cultured in Matrigel-coated flasks prepared with a working solution of 1X Ham's F-12 nutrient mix, without supplementation (Invitrogen, Waltham, MA, cat. 11765054), 100 U/mL penicillin-streptomycin (Invitrogen, cat. 15140122), and 2.5% Matrigel (Corning Inc., Corning, NY, cat. 354248) for the first three passages. […]

[1] = second compound 0.1 µM, first compound 0.00949 µM
[2] = second compound 0.1 µM, first compound 0.03 µM
[3] = second compound 0.1 µM, first compound 0.0949 µM
[4] = second compound 0.1 µM, first compound 0.3 µM
[5] = second compound 0.1 µM, first compound 0.949 µM
[6] = second compound 0.1 µM, first compound 3 µM
[7] = second compound 0.316 µM, first compound 0.00949 µM
[8] = second compound 0.316 µM, first compound 0.03 µM
[9] = second compound 0.316 µM, first compound 0.0949 µM
[10] = second compound 0.316 µM, first compound 0.3 µM
[11] = second compound 0.316 µM, first compound 0.949 µM
[12] = second compound 0.316 µM, first compound 3 µM
[13] = second compound 1 µM, first compound 0.00949 µM
[14] = second compound 1 µM, first compound 0.03 µM
[15] = second compound 1 µM, first compound 0.0949 µM
[16] = second compound 1 µM, first compound 0.3 µM
[17] = second compound 1 µM, first compound 0.949 µM
[18] = second compound 1 µM, first compound 3 µM
[19] = second compound 3.16 µM, first compound 0.00949 µM
[20] = second compound 3.16 µM, first compound 0.03 µM
[21] = second compound 3.16 µM, first compound 0.0949 µM
[22] = second compound 3.16 µM, first compound 0.3 µM
[23] = second compound 3.16 µM, first compound 0.949 µM
[24] = second compound 3.16 µM, first compound 3 µM
[25] = second compound 10 µM, first compound 0.00949 µM
[26] = second compound 10 µM, first compound 0.03 µM
[27] = second compound 10 µM, first compound 0.0949 µM
[28] = second compound 10 µM, first compound 0.3 µM
[29] = second compound 10 µM, first compound 0.949 µM
[30] = second compound 10 µM, first compound 3 µM
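Also: drug exposure lasted 7 days starting on day 3 after seeding.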
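For viability, T/C in this document: luminescence viability as percent of DMSO vehicle wells = 100%.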

CC(C)CC(NC(=O)C(Cc1ccccc1)NC(=O)c1cnccn1)B(O)O (stereo not given) + NC1CCC(NC2CC2c2ccccc2)CC1
IC50 (second compound 0.1 µM): 0.527 nM | IC50 (second compound 0.316 µM): 0.428 nM | IC50 (second compound 1 µM): 0.484 nM | IC50 (second compound 3.16 µM): 0.498 nM | IC50 (second compound 10 µM): 0.463 nM | viability, T/C (second compound 0.1 µM, first compound 0.000316 µM): 88% | viability, T/C (second compound 0.1 µM, first compound 0.001 µM): 2.43% | viability, T/C (second compound 0.1 µM, first compound 0.00316 µM): 0.03% | viability, T/C (second compound 0.1 µM, first compound 0.01 µM): 0.01% | viability, T/C (second compound 0.1 µM, first compound 0.0316 µM): 0.02% | viability, T/C (second compound 0.1 µM, first compound 0.1 µM): 0.1% | viability, T/C (second compound 0.316 µM, first compound 0.000316 µM): 67.2% | viability, T/C (second compound 0.316 µM, first compound 0.001 µM): 2.02% | viability, T/C (second compound 0.316 µM, first compound 0.00316 µM): 0.02% | viability, T/C (second compound 0.316 µM, first compound 0.01 µM): 1.84% | viability, T/C (second compound 0.316 µM, first compound 0.0316 µM): 0.01% | viability, T/C (second compound 0.316 µM, first compound 0.1 µM): 1.34% | viability, T/C (second compound 1 µM, first compound 0.000316 µM): 78.2% | viability, T/C (second compound 1 µM, first compound 0.001 µM): 1.83% | viability, T/C (second compound 1 µM, first compound 0.00316 µM): 0.03% | viability, T/C (second compound 1 µM, first compound 0.01 µM): 0.01% | viability, T/C (second compound 1 µM, first compound 0.0316 µM): 0.01% | viability, T/C (second compound 1 µM, first compound 0.1 µM): 2.03% | viability, T/C (second compound 3.16 µM, first compound 0.000316 µM): 81.7% | viability, T/C (second compound 3.16 µM, first compound 0.001 µM): 1.37% | viability, T/C (second compound 3.16 µM, first compound 0.00316 µM): 0.09% | viability, T/C (second compound 3.16 µM, first compound 0.01 µM): 0.01% | viability, T/C (second compound 3.16 µM, first compound 0.0316 µM): 0.02% | viability, T/C (second compound 3.16 µM, first compound 0.1 µM): 0.05% | viability, T/C (second compound 10 µM, first compound 0.000316 µM): 74.6% | viability, T/C (second compound 10 µM, first compound 0.001 µM): 0.29% | viability, T/C (second compound 10 µM, first compound 0.00316 µM): 0.05% | viability, T/C (second compound 10 µM, first compound 0.01 µM): 0.08% | viability, T/C (second compound 10 µM, first compound 0.0316 µM): 0.12% | viability, T/C (second compound 10 µM, first compound 0.1 µM): 0.14%

NS(=O)(=O)OCC1CC(n2ccc3c(NC4CCc5ccccc54)ncnc32)CC1O (stereo not given) + NC1CCC(NC2CC2c2ccccc2)CC1
IC50 (second compound 0.1 µM): 708 nM | IC50 (second compound 0.316 µM): 765 nM | IC50 (second compound 1 µM): 747 nM | IC50 (second compound 3.16 µM): 593 nM | IC50 (second compound 10 µM): 469 nM | viability, T/C [1]: 102% | viability, T/C [2]: 102% | viability, T/C [3]: 102% | viability, T/C [4]: 88.6% | viability, T/C [5]: 36.9% | viability, T/C [6]: 14.8% | viability, T/C [7]: 100% | viability, T/C [8]: 98.6% | viability, T/C [9]: 76.6% | viability, T/C [10]: 87.4% | viability, T/C [11]: 41.5% | viability, T/C [12]: 13.9% | viability, T/C [13]: 105% | viability, T/C [14]: 108% | viability, T/C [15]: 79.9% | viability, T/C [16]: 83% | viability, T/C [17]: 38.9% | viability, T/C [18]: 17.4% | viability, T/C [19]: 95.3% | viability, T/C [20]: 90% | viability, T/C [21]: 80% | viability, T/C [22]: 74.5% | viability, T/C [23]: 34.1% | viability, T/C [24]: 9.44% | viability, T/C [25]: 86.9% | viability, T/C [26]: 95.7% | viability, T/C [27]: 70.9% | viability, T/C [28]: 69.9% | viability, T/C [29]: 23.8% | viability, T/C [30]: 10.1%

CCN(c1cc(-c2ccc(CN3CCOCC3)cc2)cc(C(=O)NCc2c(C)cc(C)[nH]c2=O)c1C)C1CCOCC1 + NC1CCC(NC2CC2c2ccccc2)CC1
IC50 (second compound 0.1 µM): > 3000 nM | IC50 (second compound 0.316 µM): > 3000 nM | IC50 (second compound 1 µM): > 3000 nM | IC50 (second compound 3.16 µM): > 3000 nM | IC50 (second compound 10 µM): > 3000 nM | viability, T/C [1]: 86.3% | viability, T/C [2]: 103% | viability, T/C [3]: 87% | viability, T/C [4]: 86.7% | viability, T/C [5]: 91.4% | viability, T/C [6]: 82.9% | viability, T/C [7]: 85.3% | viability, T/C [8]: 95.9% | viability, T/C [9]: 96.2% | viability, T/C [10]: 91.4% | viability, T/C [11]: 89.9% | viability, T/C [12]: 91.1% | viability, T/C [13]: 92.3% | viability, T/C [14]: 92.7% | viability, T/C [15]: 93.5% | viability, T/C [16]: 88.3% | viability, T/C [17]: 86.3% | viability, T/C [18]: 91.8% | viability, T/C [19]: 91.3% | viability, T/C [20]: 90.5% | viability, T/C [21]: 83.3% | viability, T/C [22]: 87.6% | viability, T/C [23]: 82% | viability, T/C [24]: 95.9% | viability, T/C [25]: 84.1% | viability, T/C [26]: 82.6% | viability, T/C [27]: 79.4% | viability, T/C [28]: 79.5% | viability, T/C [29]: 82.7% | viability, T/C [30]: 83.7%
